As usually defined, the IC50 is the concentration that inhibits the measured activity by half.

The text below walks through data of PubChem BioAssay AID1645866 (Buhrlage Lab, Dana-Farber Cancer Institute and Novartis …, 2021).

The source made the active and inactive calls.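 How the source made its calls: active means in confirmatory dose-response testing, peak deubiquitinase inhibition of 30% or more; inactive means the rest.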

This experiment deals with Ubiquitin carboxyl-terminal hydrolase 28 (Homo sapiens) (UniProt Q96RU2). Kind of experiment: Ubiquitin-specific peptidase 28 DUB inhibitors, biochemical concentration-dependence assay, validation of primary screening hits (AID 1645866). To be noted: purified USP28, ubiquitin-rhodamine fluorescence, 30 min.
Ubiquitin carboxyl-terminal hydrolase 28 (Homo sapiens), sequence (Q96RU2 whole entry, looked up): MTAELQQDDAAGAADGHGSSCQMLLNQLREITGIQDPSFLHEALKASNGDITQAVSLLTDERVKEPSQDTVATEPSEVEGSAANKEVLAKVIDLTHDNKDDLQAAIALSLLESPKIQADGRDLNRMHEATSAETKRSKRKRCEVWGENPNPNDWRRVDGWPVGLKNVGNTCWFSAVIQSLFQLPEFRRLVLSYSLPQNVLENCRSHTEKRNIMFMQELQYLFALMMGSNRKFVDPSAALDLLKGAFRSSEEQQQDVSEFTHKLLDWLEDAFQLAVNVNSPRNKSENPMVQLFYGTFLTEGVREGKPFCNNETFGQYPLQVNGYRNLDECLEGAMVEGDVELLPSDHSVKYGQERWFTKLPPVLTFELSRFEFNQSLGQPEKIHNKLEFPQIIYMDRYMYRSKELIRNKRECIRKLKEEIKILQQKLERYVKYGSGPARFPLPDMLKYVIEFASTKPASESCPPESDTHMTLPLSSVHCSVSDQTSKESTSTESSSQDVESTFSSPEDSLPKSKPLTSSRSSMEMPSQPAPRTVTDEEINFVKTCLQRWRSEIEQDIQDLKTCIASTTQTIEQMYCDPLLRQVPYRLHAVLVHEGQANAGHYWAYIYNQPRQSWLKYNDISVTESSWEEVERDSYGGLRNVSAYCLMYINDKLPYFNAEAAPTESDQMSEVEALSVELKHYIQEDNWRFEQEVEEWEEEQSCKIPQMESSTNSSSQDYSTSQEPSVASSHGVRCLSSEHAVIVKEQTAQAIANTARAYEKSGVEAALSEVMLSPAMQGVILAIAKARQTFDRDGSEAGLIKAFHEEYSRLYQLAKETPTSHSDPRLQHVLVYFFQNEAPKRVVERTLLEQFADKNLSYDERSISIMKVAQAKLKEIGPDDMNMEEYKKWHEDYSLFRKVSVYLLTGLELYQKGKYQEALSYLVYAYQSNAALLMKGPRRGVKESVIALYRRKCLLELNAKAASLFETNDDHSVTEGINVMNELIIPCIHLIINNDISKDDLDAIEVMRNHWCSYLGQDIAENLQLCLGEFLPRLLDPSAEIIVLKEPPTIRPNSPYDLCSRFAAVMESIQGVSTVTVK

Regarding `COc1ccccc1CNC(=O)CCCCn1c(=O)c2ccccc2n(Cc2ccccc2C#N)c1=O`, the IC50 is 13 µM.

Take `CN1CCN(C(=O)c2cc(-c3ccn(-c4ccccc4)n3)n3ccccc23)CC1`: the IC50 was > 50 µM (inactive).

Turning to `CCCC(=O)c1c[nH]c(C(=O)NCc2ccc(F)cc2)c1`, the IC50 was 18.7 µM.

With `Cc1cccc(NC(=O)c2nc(N3CCSCC3)c3cnn(C)c3n2)c1`, the IC50 was > 50 µM (inactive).

`CC(C)(C)C(=O)C1C2C(=O)N(Cc3ccccc3)C(=O)C2C2c3ccccc3C=CN12` (centres undefined): the IC50 was > 50 µM (inactive).

As for `Cc1ccc(C2c3c(-c4ccccc4O)n[nH]c3C(=O)N2Cc2ccco2)cc1` (centres undefined), the IC50 was 20 µM.

As to `CC(=O)Nc1ccc(S(=O)(=O)N2CCCC(C(=O)Nc3cccc4ccccc34)C2)cc1` (centres undefined), the IC50 is 19.1 µM.

As for `CS(=O)(=O)N1CCCc2cc(C(=O)Nc3ccc(Oc4ccccc4)cc3)ccc21`, the IC50 was 12.5 µM.

`O=C(c1ccc(Cl)cc1)c1c[nH]cc1-c1c(F)cccc1Cl`: the half-inhibitory concentration (IC50) was 33.1 µM.

On to `COC(=O)c1sccc1NC(=O)COc1ccsc1C(=O)OC`, for which the IC50 was 25.6 µM.

In the case of `Cn1ncc2c(=O)n(Cc3cccc(Cl)c3)cnc21`, the half-inhibitory concentration (IC50) is 12.9 µM.

In the case of `CCOc1ccc(-c2cc3nc(C4CCN(C(=O)OC(C)(C)C)CC4)c(C(=O)Nc4cc(F)ccc4F)cn3n2)cc1`, the IC50 is > 50 µM (inactive).

On to `COC(=O)C1C(c2ccc(Cl)cc2Cl)C2(C(=O)c3ccccc3C2=O)C2C=Cc3ccccc3N12` (centres undefined), for which the IC50 was > 50 µM (inactive).

Take `CCCn1c(=O)n(CC(=O)c2ccccc2F)c2c(C(N)=O)nc(-c3ccco3)nc21`: the IC50 is > 50 µM (inactive).

Take `COc1ccc(CN=C2NS(=O)(=O)C(c3ccc(F)cc3)=C2C)cc1OC`: the IC50 was 23 µM.

Take `O=C1N(Cc2ccc(F)cc2)CCN1c1ccc(C(F)(F)F)cn1`: the IC50 is 4.67 µM.

For the compound `O=C(NC1CC1)c1ccnn1-c1ccc2ccc(-c3ccncc3)cn12`, the IC50 is > 50 µM (inactive).

Turning to `CO[C@H]1/C=C/OC2(C)Oc3c(C)c(O)c4c(c3C2=O)C2(C=C(NC(=O)/C(C)=C\C=C\[C@H](C)[C@H](O)[C@@H](C)[C@@H](O)[C@@H](C)[C@H](OC(C)=O)C1C)C4=O)OCC(=O)O2` (some centres undefined), the IC50 was > 50 µM (inactive).

In the case of `COc1ccc(C(=O)Nc2nc(-c3ccc4c(c3)NC(=O)CO4)c(C)s2)cc1OC`, the IC50 is 1.72 µM.

For the compound `CCOc1ccccc1NC(=O)COC(=O)C(c1ccccc1)c1ccccc1`, the IC50 is > 50 µM (inactive).

Turning to `CSc1nc2ncn(CC(=O)Nc3cccc(Cl)c3)c(=O)c2s1`, the IC50 is > 50 µM (inactive).

As to `Cc1ccc(C(=O)Nc2ccc(S(=O)(=O)N3CCCC3)cc2)cc1Br`, the IC50 is 3.32 µM.

On to `COc1ccc(OC)c(NC(=O)CSc2nc(C)nc3c2oc2ccccc23)c1`, for which the IC50 was 8.65 µM.

As to `O=C(O)COc1ccccc1/C=C1\CCc2c1nc1ccccc1c2C(=O)O`, the IC50 was > 50 µM (inactive).

Take `CC(C)OC(=O)c1cc2c(ccn2C)n1CC(=O)N1CCN(C(=O)c2ccco2)CC1`: the IC50 was > 50 µM (inactive).

Take `CCOc1ccc2cc3c(nc2c1)OC(=O)N(Cc1ccc(C)o1)C3`: the concentration for half-maximal inhibition (IC50) was 2.93 µM.

On to `CC(C)N(C(=O)Cn1c(=O)[nH]c2ccccc21)c1ccccc1`, for which the IC50 is > 50 µM (inactive).

In the case of `COc1ccc(-n2ccn3c(CCC(=O)NCc4ccc(F)cc4)nnc3c2=O)cc1`, the IC50 was 25.3 µM.

With `Cc1nn(-c2nc3ccccc3[nH]2)c2c1C(c1cccs1)CC(=O)N2` (centres undefined), the IC50 is > 50 µM (inactive).

Turning to `Cc1nc(CN2CCn3c(Cn4cccn4)cnc3C2C)cs1` (centres undefined), the IC50 was > 50 µM (inactive).

On to `COc1ccc(C(=O)Nc2ccc3c(c2)C(=O)N(C)c2ccccc2O3)cc1`, for which the 50% inhibitory concentration (IC50) was 8.9 µM.

For `c1ccc2c(-c3nc(C4CC4)no3)nnc(NCc3ccncc3)c2c1`, the IC50 was 35.9 µM.

As to `Cc1cccc(Cl)c1NC(=O)Nc1ccc(NC(=O)c2ccccc2O)cc1`, the IC50 is 27 µM.

As to `Cc1nn(C)c2c1[C@@H](c1ccc(F)c(Br)c1)[C@H](NC(=O)c1ccccc1)C(=O)N2`, the IC50 was 3.79 µM.

For the compound `CN(Cc1ccccc1)S(=O)(=O)c1ccc2[nH]cc(C(=O)NCc3cccs3)c(=O)c2c1`, the IC50 is 1.52 µM.

Turning to `O=C(Nc1nc2c(s1)COCC2)c1cc(-c2ccco2)[nH]n1`, the IC50 was > 50 µM (inactive).

As for `COC1=CC(=O)c2c(O)c(C)c(CC(C)=O)c(O)c2C1=O`, the IC50 was > 50 µM (inactive).

For the compound `Cc1cccc(-c2nc3n(CC(=O)Nc4ccc(Cl)cc4)c(C)cc(=O)n3n2)c1`, the IC50 is 0.985 µM.

As to `CCOc1ccc(NC(=O)c2nc3c(=O)[nH]c4cc(C)ccc4n3n2)cc1`, the half-inhibitory concentration (IC50) was 47.5 µM.

As for `COc1ccc(C(=O)NCC(c2ccc3c(c2)CCCN3C)N2CCCC2)cc1` (centres undefined), the IC50 is > 50 µM (inactive).

Consider `CN(Cc1ccccc1)S(=O)(=O)c1ccc(S(=O)(=O)N2CCN(C(=O)c3cccnc3)CC2)cc1`, for which the half-maximal inhibitory concentration (IC50) is 18.8 µM.

In the case of `O=C(/C=C/c1c(F)cccc1Cl)N1CCc2ccccc2C1`, the IC50 was 36.3 µM.

For the compound `N#Cc1c(Cl)cccc1Oc1ccc(S(=O)(=O)N2CCC(O)CC2)cc1`, the IC50 is 19.5 µM.

Turning to `CCc1ccc(NC(=O)COc2cccc(-n3cnnn3)c2)cc1`, the 50% inhibitory concentration (IC50) was 25 µM.

Take `CCOc1ccccc1C(=O)Nc1ccc2c(c1)Sc1ncccc1C(=O)N2C`: the IC50 is 41.6 µM.

For the compound `COc1ccc(-n2c(SCC(=O)c3ccc(F)cc3)nnc2-c2cccnc2)cc1`, the IC50 is 18.6 µM.

Take `CCc1ccc(NC(=O)COC(=O)c2n[nH]c3ccccc23)cc1`: the IC50 was 12 µM.

Regarding `Cc1ccc(-c2nc(NC(=O)COc3ccc(Cl)cc3)no2)cc1`, the concentration for half-maximal inhibition (IC50) was 4.74 µM.

For the compound `O=C(NCc1cccnc1)C1CCN(c2cnc(N3CCCCCC3)nc2)CC1`, the IC50 was 0.0687 µM.

In the case of `Cc1ccc(C(=O)Nc2cc3c4c(c2)CC(=O)N4CCC3)cc1C`, the IC50 is 6.26 µM.

Regarding `Cc1cc(C(=O)N2CCOCC2)c(C)n1-c1ccc(O)cc1`, the 50% inhibitory concentration (IC50) was 41.7 µM.

For the compound `CCn1c(SCC(=O)c2c(N)n(CC(C)C)c(=O)n(C)c2=O)nnc1-c1ccccc1`, the IC50 was 13.9 µM.

As to `Cc1ccn(-c2ccc(NC(=O)c3ccccc3Sc3ccccc3C#N)cc2)n1`, the IC50 was 36.1 µM.

Turning to `Cc1ccc2c(c1)c(=O)c(C(=O)c1ccccc1)cn2CC(=O)Nc1ccc2c(c1)OCCO2`, the half-inhibitory concentration (IC50) was 4.21 µM.

Regarding `O=C(Cn1cncc(-c2nc(-c3ccccc3)cs2)c1=O)NC1CCCC1`, the IC50 was 36.5 µM.

For `Cn1cc(CCNC(=O)c2cc3ccccc3[nH]2)c2cccnc21`, the IC50 was 8.29 µM.

Take `COc1ccc(CCNC(=O)CSc2cn(CCNC(=O)c3ccc(F)cc3)c3ccccc23)cc1OC`: the concentration for half-maximal inhibition (IC50) was 28.1 µM.

For the compound `COc1ccc(/C=C/c2ccnc3nc(-n4cccc4)nn23)cc1`, the IC50 was > 50 µM (inactive).

For the compound `COc1cccc2cc(C(=O)Nc3nc(-c4ccncc4)cs3)oc12`, the half-inhibitory concentration (IC50) was 0.647 µM.

As for `O=C(NCc1nc(-c2ccc3c(c2)[nH]c(=O)n3C2CCCC2)no1)c1ccccc1`, the IC50 was > 50 µM (inactive).

Consider `COC(=O)CC1CC23OC2(C(=O)c2c(O)cccc2C3=O)C(C)O1` (centres undefined), for which the concentration for half-maximal inhibition (IC50) is 3.55 µM.

Take `COc1ccc(C(C(=O)NCc2ccccc2)N(C(=O)CCN2CCc3ccccc32)c2ccc(C)c(C)c2)cc1` (centres undefined): the IC50 is > 50 µM (inactive).

As for `O=C1C=CC(O)C2C1CC13SSC4(CC5C(=O)C=CC(O)C5N4C1=O)C(=O)N23` (centres undefined), the IC50 is > 50 µM (inactive).

Take `Cc1cccc(NC(=O)Cn2c(N3CCOCC3)nc3cc(C)n(C)c3c2=O)c1`: the 50% inhibitory concentration (IC50) is 16.3 µM.

As for `COc1cc2c(c3oc4cccc(O)c4c(=O)c13)C1C=COC1O2` (centres undefined), the 50% inhibitory concentration (IC50) is 36.7 µM.

Consider `COc1ccc(CNC(=O)Nc2cccc3ccccc23)cc1`, for which the half-maximal inhibitory concentration (IC50) was 9.99 µM.

Regarding `CS(=O)(=O)NC1CCCN(C(=O)Nc2cccc3ccccc23)C1` (centres undefined), the half-inhibitory concentration (IC50) was 30.5 µM.

As to `COc1ccc(NC(=O)CS(=O)(=O)c2[nH]c(-c3ccc(C)cc3)nc2-c2ccccc2)cc1Cl`, the IC50 was 31 µM.

On to `CCCCNC(=O)C1Sc2nnc(-c3ccccc3)n2NC1c1ccccc1` (centres undefined), for which the concentration for half-maximal inhibition (IC50) was 18.1 µM.

With `O=C(Cn1c(=O)n(CC(=O)NC2CCCC2)c(=O)c2ccccc21)Nc1cc(Cl)ccc1Cl`, the IC50 is 4.52 µM.

With `O=C(NC1CCCC1)c1cccc(-c2ccc(N3CCCC3)nc2)c1`, the IC50 was 8.14 µM.

With `O=C(CSc1nc2ccccc2n1S(=O)(=O)c1ccc(Br)cc1)Nc1ccc([N+](=O)[O-])cc1Cl`, the 50% inhibitory concentration (IC50) was 8.65 µM.

As to `Cc1cc(C)c(O)c(-c2cc(C(=O)Nc3ccccc3Cl)[nH]n2)c1`, the IC50 is 3.54 µM.

As for `CCOc1ccccc1C(=O)Oc1ccc2c(C)cc(=O)oc2c1`, the IC50 was 23.2 µM.

With `N#Cc1cn(CC(=O)N2CCc3ccccc32)c2ccccc12`, the IC50 was 17.2 µM.

Turning to `CC1Oc2cc3c(-c4c(O)cc(O)c5c(O)c6c(cc45)OC(C)C(C)C6=O)c(O)cc(O)c3c(O)c2C(=O)C1C` (centres undefined), the IC50 was 2.18 µM.

For `Clc1cncc(Oc2nc(-c3cccnc3)nc3ccccc23)c1`, the half-maximal inhibitory concentration (IC50) was 9.69 µM.

For the compound `O=C(Nc1cccc(-c2noc(C3CCC3)n2)c1)C1CC(=O)N(c2ccccc2)C1` (centres undefined), the IC50 was 18.8 µM.

For `Nc1ccc(NC(=O)c2cc3c(s2)CCC3)cc1[N+](=O)[O-]`, the concentration for half-maximal inhibition (IC50) is 16.9 µM.

For `Cc1ccc2[nH]c(=O)c(CN(CC3COCCO3)S(=O)(=O)c3ccc(F)cc3)cc2c1` (centres undefined), the IC50 is 13.5 µM.

For `O=C(NCc1ccc2c(c1)OCO2)c1nn(C23CC4CC(CC(C4)C2)C3)cc1[N+](=O)[O-]`, the IC50 was > 50 µM (inactive).

Take `Nc1nc(OCc2ccccc2)c2[nH]c(/C=C/c3cccs3)nc2n1`: the half-inhibitory concentration (IC50) is 24.9 µM.

Turning to `COc1ccc(-c2nc(SCC(=O)Nc3ccc(Cl)cc3F)n[nH]2)cc1`, the IC50 was > 50 µM (inactive).

Take `O=C(c1ccsc1)N1CCC2(C1)Nc1cccnc1NC2=NC1CCCC1` (centres undefined): the IC50 was > 50 µM (inactive).

For the compound `CSc1nccc(-c2ccc(F)cc2)c1C#N`, the IC50 is 46.2 µM.

Take `CC(C)OC(=O)c1cc2c(ccn2-c2ccc(F)cc2)n1CC(=O)NC1CCCCC1`: the IC50 was 27.5 µM.

For `COc1ccc(-c2cc3nc(C)cc(Nc4ccc(F)cc4)n3n2)cc1OC`, the IC50 is > 50 µM (inactive).

As for `Cc1cccc(S(=O)(=O)N2CCc3nc4ccccc4n3CC2)c1`, the half-maximal inhibitory concentration (IC50) was 24.3 µM.

As to `COc1ccc(NC(=O)Cn2cc(C(=O)c3ccc(C)cc3)c(=O)c3ccccc32)cc1`, the IC50 is 2.67 µM.
